In patent US20240368168A1, “SARM1 ENZYME ACTIVITY INHIBITOR AND APPLICATION THEREOF” (ARTIVILA BIOPHARMA, priority 2021, published 2024):

Key:
[1] = molecular target: T1, SARM1 protein in iSARM1 (HEK293) cells (Homo sapiens, UniProt Q6SZW1); experiment: Inhibitory activity in inducible SARM1 overexpressing cell line, intracellular cADPR level; type: cell-based; details: activator CZ-48 100 μM, cADPR content
T1 construct: The full-length SARM1 was synthesized into the pUC57 plasmid by WZ Biosciences Inc., and PCR was performed using pUC57-SARM1 as a DNA template
T1 sequence (Q6SZW1 28-724): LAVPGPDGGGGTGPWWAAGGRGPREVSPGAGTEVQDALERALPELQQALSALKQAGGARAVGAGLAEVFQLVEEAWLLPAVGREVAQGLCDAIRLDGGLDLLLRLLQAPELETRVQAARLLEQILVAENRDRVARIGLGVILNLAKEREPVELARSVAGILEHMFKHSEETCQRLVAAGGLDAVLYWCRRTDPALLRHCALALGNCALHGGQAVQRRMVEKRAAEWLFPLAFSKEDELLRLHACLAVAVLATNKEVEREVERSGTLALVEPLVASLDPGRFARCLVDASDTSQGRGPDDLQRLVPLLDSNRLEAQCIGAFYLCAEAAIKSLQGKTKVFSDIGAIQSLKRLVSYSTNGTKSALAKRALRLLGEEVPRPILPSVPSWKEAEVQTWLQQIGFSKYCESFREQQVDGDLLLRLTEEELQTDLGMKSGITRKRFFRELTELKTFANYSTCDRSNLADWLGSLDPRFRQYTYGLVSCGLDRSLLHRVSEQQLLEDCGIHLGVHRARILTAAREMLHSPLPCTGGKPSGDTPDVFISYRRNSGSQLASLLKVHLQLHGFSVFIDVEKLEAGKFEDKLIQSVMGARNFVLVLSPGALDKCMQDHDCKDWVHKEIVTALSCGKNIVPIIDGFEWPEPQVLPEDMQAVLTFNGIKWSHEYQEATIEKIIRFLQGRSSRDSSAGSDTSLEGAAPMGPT
Protocol: In this example, the gene sequence of SARM1 was amplified using PCR, and constructed into pInducer20-neo plasmid. pInducer20-SARM1 virus was packaged in a liposome and infected HEK293 to obtain an inducible SARM1-overexpressing cell line, which was labeled as iSARM1 (HEK293). The specific preparation was as follows:
First, a 96-well culture plate was treated with 0.05 mg/ml polylysine for 5 minutes and washed once with PBS. 3×10^4 iSARM1 (HEK293) cells were plated into the 96-well plate and cultured overnight in a 37° C. and 5% incubator. The next day, the cells were added with an inhibitor with a final concentration of 50 μM, incubated in the incubator for 1.5 hours, added with activator CZ-48 with a final concentration of 100 μM, and incubated for 16 hours. Meanwhile, the cells without adding CZ-48 or without adding drug were set as control group. Finally, the intracellular cADPR level was detected to represent the activity of SARM1, and the inhibition rate of SARM1 in cells by 50 μM inhibitor was calculated.
The cADPR measurement was performed as follows. First, the cells were washed once with PBS, and added with 150 μl of pre-cooled 0.6M perchloric acid (PCA) to quickly lyse the cells and precipitate the protein. The PCA supernatant was transferred to a 1.5 ml centrifuge tube. The protein in the culture medium was dissolved again with 100 μl of 1M NaOH. The supernatant was added with 0.5 ml of organic reagent mixture (trioctylamine:chloroform=1:3) to extract PCA from water. After sufficient shaking, the mixture was centrifuged at 12,000 rpm for 10 minutes. The solution was divided into 3 layers: the upper aqueous phase, containing the small molecules of interest; the lower organic phase, in which PCA was dissolved; and a thin protein layer between the upper and lower layers. The upper layer was transferred to a new centrifuge tube, added with 1M Tris-Mg at a ratio of 1:100 (1M Tris (pH 8.0): 1M MgCl2=9:1), added with NADase at a ratio of 1:250, and treated at 37° C. overnight to remove NAD^+ from the mixed solution. After the treatment was completed, the mixed solution was filtered using Millipore's 10 K 96-well filter plate to remove NADase.
The cADPR content in the solution was determined through Cycling analysis method. The specific steps were as follows: 20 μl of the sample to be tested or the cADPR standard was taken and added to a 96-well opaque white plate. Preparation of reaction solution: 9.6 ml of PBS (pH 7.4), 200 μl of ethanol, 150 μl of 1 mg/ml AD, 10 μl of 10 mM FMN, 5 μl of 18 mg/ml Diaphorase, 10 μl of 10 mM Resazurin, and 100 μl of 1M Nam. Half of the reaction solution was divided and added with 0.2 μg/ml cyclase. The reaction solution without adding cyclase was used as control experiment. Each sample was divided into two groups, 3 replicates in each group. The reaction solutions containing or not containing cyclase were added to each group to perform the reaction. The reaction kinetic curve within 30 minutes was recorded (Ex:Em=544/599). The average slope of the reaction was calculated. Conversion was performed according to cADPR standard to obtain the accurate cADPR content. A curve of intracellular cADPR content vs corresponding inhibitor concentration was plotted. The half inhibitory concentration of the inhibitor was calculated.

dN-SARM1 protein = molecular target: T2, dN-SARM1 protein (Homo sapiens, UniProt Q6SZW1); experiment: In vitro biochemical assay for inhibiting SARM1 enzymatic activity (IC50), PC6 fluorescence method; details: 50 μM NAD, 50 μM PC6, 50 μM NMN activator
T2 construct: the N-terminal mitochondrial localization signal peptide of SARM1 was removed
T2 sequence (Q6SZW1 28-724): T1 sequence (Q6SZW1 28-724)
Protocol: 200 μM compound was first added to a solution of 0.05 μg/ml dN-SARM1 in 50 mM Tris-HCl (pH 7.5). Half of the mixture was added to an equal volume of a solution of 0.05 μg/ml dN-SARM1 in 50 mM Tris-HCl (pH 7.5) and mixed. The drug was diluted 6 times in this manner, with the final concentrations being 200, 100, 50, 25, 12.5, 6.25, 3.125 μM, or 200, 50, 12.5, 3.125, 0.78, 0.195, 0.049 μM, respectively. The protein without inhibitors added, being used as control group, was incubated at room temperature for 10 minutes.
50 μM NAD, 50 μM PC6 as substrate and 50 μM NMN as activator were added to the dN-SARM1 protein incubated with the inhibitor and reacted for 30 minutes at room temperature. The concentration of each component was the final concentration in the reaction system.
During the reaction, PC6 fluorescence spectrum dynamics were detected by a microplate reader, wherein the excitation wavelength and emission wavelength for detection were 390 nm and 520 nm, respectively. Finally, the reaction rate was used to express the activity of the protein, and the half inhibitory concentration was calculated. The higher the reaction rate, the stronger the protein activity, and the lower the inhibitory efficiency of the compound.
The dose curve of compounds inhibiting SARM1 enzymatic activity was determined using the above method.

Row | SMILES | EC50 [1] | IC50 (dN-SARM1 protein)
1 | CNc1ccc2ncc(-c3cccc(N(C)C(=O)C4CCOCC4)c3)n2c1 [Compound 159] | 1 to 10 µM | < 1 µM
2 | CN(C(=O)COC1CCOC1)c1cccc(-c2cnc3ccc(N(C)C(=O)OC(C)(C)C)cn23)c1 (stereo not shown) [Compound 160] | < 1 µM | < 1 µM
3 | CN(C(=O)OC(C)(C)C)c1ccc2ncc(-c3cccc(OCCOCc4ccccc4)c3)n2c1 [Compound 156] | 1 to 10 µM | 1 to 10 µM
4 | CN(C(=O)OC(C)(C)C)c1ccc2ncc(-c3cccc(NC(=O)COCCOCCOCC(=O)Nc4cccc(-c5cnc6ccc(N(C)C(=O)OC(C)(C)C)cn56)c4)c3)n2c1 [Compound 121, ((((2,2′-((oxybis(ethane-2,1-diyl))bis(oxy))bis(acetyl))bis(azadiyl))bis(3,1-phylene))bis(imidazo[1,2-a]pyridin-3,6-diyl))bis(tert-butyl (methyl)carbamate)] | < 1 µM | < 1 µM
5 | Cc1ncsc1-c1ccc(CNC(=O)[C@@H]2C[C@@H](O)CN2C(=O)[C@@H](NC(=O)COCCOCC(=O)Nc2cccc(-c3cnc4ccc(N(C)C(=O)OC(C)(C)C)cn34)c2)C(C)(C)C)cc1 [Compound 113] | 1 to 10 µM | 1 to 10 µM
6 | CN(C(=O)OC(C)(C)C)c1ccc2ncc(-c3cccc(NC(=O)COCCOCCOCC(N)=O)c3)n2c1 [Compound 99, tert-butyl (3-(3-(2-(2-(2-(2-amino-2-oxoethoxy)ethoxy)ethoxy)acetamido)phenyl)imidazolin[1,2-a]pyridin-6-yl)(methyl)carbamate] | 1 to 10 µM | 1 to 10 µM
7 | Cc1ncsc1-c1ccc(CNC(=O)[C@@H]2C[C@@H](O)CN2C(=O)[C@@H](NC(=O)COCCOCCOCC(=O)Nc2cccc(-c3cnc4ccc(N(C)C(=O)OC(C)(C)C)cn34)c2)C(C)(C)C)cc1 [Compound 119, Tert-butyl (3-(3-((S)-13-((2S,4R)-4-hydroxy-2-((4-(4-methylthiazol-5-yl)benzyl)carbamoyl)pyrrolidin-1-carbonyl)-14,14-dimethyl-11-oxo-3,6,9-trioxa-12-azaglutaramide)phenyl)imidazo[1,2-a]pyridin-6-yl)(methyl)carbamate] | 1 to 10 µM | < 1 µM
8 | CN(C(=O)OC(C)(C)C)c1ccc2ncc(-c3ccccc3Cl)n2c1 [Compound 11] | < 1 µM | 1 to 10 µM
9 | COc1cccc(-c2cnc3ccc(N(C)C(=O)OC(C)(C)C)cn23)c1 [Compound 13] | 1 to 10 µM | < 1 µM
10 | Cc1ccccc1-c1cnc2ccc(N(C)C(=O)OC(C)(C)C)cn12 [Compound 10] | < 1 µM | 1 to 10 µM
11 | COCCOCC(=O)Nc1cccc(-c2cnc3ccc(N(C)C(=O)OC(C)(C)C)cn23)c1 [Compound 47, tert-butyl (3-(3-(2-(2-methoxyethoxy)acetamido)phenyl)imidazo[1,2-a]pyridin-6-yl)(methyl) carbamate] | < 1 µM | < 1 µM
12 | CN(C(=O)OC(C)(C)C)c1ccc2ncc(-c3ccncc3)n2c1 [Compound 17] | 1 to 10 µM | 1 to 10 µM
13 | c1ccc(-c2cnc3ccc(NC4CCOC4)cn23)cc1 (stereo not shown) [Compound 87, 3-phenyl-N-(tetrahydrofuran-3-yl)imidazo[1,2-a]pyridin-6-amine] | 1 to 10 µM | < 1 µM
14 | CN(C(=O)OC(C)(C)C)c1ccc2ncc(-c3cccc(OCCOC4CCOC4)c3)n2c1 (stereo not shown) [Compound 155] | < 1 µM | –

Now from value to compound:

Row | EC50 [1] | IC50 (dN-SARM1 protein) | SMILES
15 | < 1 µM | 1 to 10 µM | CC(C)(C)OC(=O)N(C/C=C/c1cccc(NC(=O)C2CCOCC2)c1)c1ccc2ncc(-c3ccccc3)n2c1 [Compound 221]
16 | < 1 µM | 1 to 10 µM | Ic1cnc2ccc(-n3cccn3)cn12 [Compound 201, 3-iodo-6-(1H-pyrazol-1-yl)imidazo[1,2-a]pyridine]
17 | < 1 µM | 1 to 10 µM | O=C1CCCN1c1ccc2ncc(-c3cccc4[nH]ccc34)n2c1 [Compound 205]
18 | 1 to 10 µM | < 1 µM | CN(C(=O)OC(C)(C)C)c1ccc2ncc(-c3cc4cc[nH]c4cn3)n2c1 [Compound 161, tert-butyl (3-(1H-pyrrolo[2,3-c]pyridin-5-yl)imidazo[1,2-a]pyridin-6-yl)(methyl)carbamate]
19 | 1 to 10 µM | 1 to 10 µM | CN(C(=O)OC(C)(C)C)c1ccc2ncc(-c3cccc(O)c3)n2c1 [Compound 272]
20 | 1 to 10 µM | < 1 µM | CN(C(=O)OC(C)(C)C)c1ccc2ncc(-c3nn4ccnc4s3)n2c1 [Compound 168]
21 | 1 to 10 µM | < 1 µM | CN(C(=O)OC(C)(C)C)c1ccc2ncc(-c3cccc4cn[nH]c34)n2c1 [Compound 259]
22 | 1 to 10 µM | < 1 µM | CNc1ccc2ncc(-c3cccc4[nH]ccc34)n2c1 [Compound 255]
23 | < 1 µM | < 1 µM | CN(C(=O)OC(C)(C)C)c1ccc2ncc(-c3cccc(NC(=O)COC4CCOC4)c3)n2c1 (stereo not shown) [Compound 237]
24 | 1 to 10 µM | 1 to 10 µM | CN(C(=O)OC(C)(C)C)c1ccc2ncc(-c3ccc(NC(=O)c4ccccc4)s3)n2c1 [Compound 181]
25 | < 1 µM | 1 to 10 µM | CC(C)OCCOCC(=O)Nc1cccc(-c2cnc3ccc(N(C)C(=O)OC(C)(C)C)cn23)c1 [Compound 247]
26 | 1 to 10 µM | 1 to 10 µM | CNc1ccc2ncc(-c3cccc(CNC(=O)c4ccccc4)c3)n2c1 [Compound 253]
27 | < 1 µM | – | O=C(Nc1cccc(-c2cnc3ccc(NC/C=C/c4ccccc4)cn23)c1)C1CCOCC1 [Compound 215]
